According to patent US8022178B2, “Modified self-assembling peptides” (Massachusetts Institute of Technology, priority 2006, dated 2011):

Assays:
neurons = neurons grown on surface (Holmes 2000); cited from earlier work
[1] = test system: chick Chorioallantoic Membrane; assay: Chorioallantoic Membrane (CAM) assay of angiogenesis; format: in vivo, chicken; settings: hydrogel placed Day 8, histology Day 12, FIG. 30
Procedure: In vivo study of angiogenesis was performed using Chorioallantoic Membrane (CAM) assay. At Day 8 of fertilized chicken egg incubation, hydrogels of 10 mm diameter with 1 mm thickness were transferred to chick Chorioallantoic Membrane. The hydrogels were selected from Table 19 and gels were formed before the transfer. On Day 12, CAMs were collected for histology. The angiogenesis inside and below the hydrogel were evaluated by histological cross section.

[2] = test system: adipose derived stem cells (ADSC); assay: ADSC culture in functionalized peptide matrixes: cell migration; format: cell-based, human
Procedure: 3-dimensional adipose derived stem cells (ADSC) were cultured in the functionalized peptide matrixes (Table 24) and cell maintenance ability of functionalized self-assembling peptide matrixes was evaluated. ADSCs were suspended in 10% sucrose solution and mixed with peptide solution selected from Table 25. The cell suspended peptide solutions were transferred to the culture inserts (10 mm diameter, Millicell-CM, Millipore) and gels were immediately formed using cell culture medium. Cell numbers seeded in the well were 4×10^4 cells/well.
(§1) The peptide solutions shown in Table 25 were loaded in the culture inserts (10 mm diameter, Millicell-CM, Millipore) and gels were formed using cell culture medium (DMEM-F12+10% FBS, Gibco). ADSC were plated at 4×10^4 cells on the inserts and cultured up to 7 Days.
Although the cells were seeded on the surface of the matrix, the cells were migrated well into the matrix.

[3] = test system: adipose derived stem cells (ADSC); assay: Growth factors secreted by ADSC into the culture medium (ELISA); format: cell-based, human; settings: from 1 day up to 7 days of culture, control tissue culture plate, FIG. 35
Procedure: as §1
The growth factors secreted into the culture medium were also evaluated using ELISA method (FIGS. 35A-35B). The growth factors secreted from stem cell are considered to be main source of the cell therapy by reducing apotosis and increasing angiogenesis. Especially HGF and VEGF are considered to key components for reducing apotosis and increasing angiogenesis. The medium of ADSC cultured on tissue culture plate was used as control (shown as TCP). […] For VEGF, all peptide matrix had increase of VEGF secretion in 1 day culture medium.

MC3T3-E1 cells = assay: Three dimensional culturing of MC3T3-E1 in hydrogel (Calcein AM, confocal); format: cell-based, mouse; settings: 14 days of culture; compared to RAD16-1; FIGS. 13A-13D
Procedure: Three dimensional culturing experiment. MC3T3-E1 cells were obtained and grown to be seeded using the same protocol as described in Example 1. Cells were centrifuged and re-suspended into sucrose solution (10%) at 4×10^6 cells/ml. FHR peptide was dissolved into water to provide a 1.0% w/t solution. 1% RAD16-I solution was obtained as RAD16-I (Puramatrix™, 3DM Inc./BD Bioscience). The pH of the FHR peptide solution was adjusted to pH 5.7 by NaOH solution (i.e., so that cells can be mixed near neutral pH). The cell suspension and the peptide solution (FHR/RAD16-I) were mixed in a ratio of 1:5. The mixed solution were placed in the inserts and the cell culture medium was added to the insert to form the hydrogel. The cells were maintained by the maintenance medium (as described herein).
Fluorescence observation of the cells. After 14 days of culture, the inserts were washed by PBS and then stained by Calcein AM solution (4 uM, Invitrogen). This solution stains the live cells by the green fluorescence when excited by 480 nm light.
The RAD16-1 and FHR hydrogels in the insert was observed by confocal microscope. […] The bright areas show the cells presence. […] The quantitative measurement of proliferation and differentiation effects by the FHR peptide hydrogel were also evaluated (FIGS. 14-16A/B). […]

[4] = test system: Mouse preosteoblast cell line (MC3T3-E1); assay: Alkaline phosphatase (ALP) activity of MC3T3-E1 on hydrogels; format: cell-based; settings: 1% FHR hydrogel; FIGS. 14-16A/B compared to FIGS. 3-4
Procedure: Mouse preosteoblast cell line (MC3T3-E1) was used to compare the proliferation and differentiation effects of the motifs with RAD16-1 and Collagen-I hydrogels as controls. The proliferation was measured by DNA contents and the differentiation effects were evaluated using Alkaline phosphatase (ALP) activity and secreted Osteocalcin. Alkaline phosphatase is known to be differentiation marker of osteoblast in earlier stage. Secreted Osteocalcin is known to be differentiation marker of osteoblast in later stage and its activity is correlated with the bone mineralization.
1% RAD16-I solution [self-assembling peptide solution] was obtained as RAD16-I (Puramatrix™, 3DM Inc./BD Bioscience). The functionalized peptides of Table 2 were dissolved in water at final concentration of 1% (v/w). The functionalized peptide solutions were then mixed with 1% RAD16-I solution at a ratio of 1:1 (Table 4). Each peptide solution was loaded in the Culture plate inserts (10 mm diameter, Millicell-CM, Millipore). […]
Cell proliferation was evaluated using DNA contents in the hydrogel using PicoGreen dsDNA Kits (Molecular Probes). ALP activity was quantitatively measured from cell lysis using Alkaline Phosphatase Fluorescence Assay Kit (Sigma). Osteocalcin was measured from cell culture medium using Mouse Osteocalcin EIA Kit (Biomedical Technologies Inc.).

Row | Substance | neurite outgrowth and synapse formation (neurons) | angiogenesis inside and below the hydrogel [1] | migration depth of cells ([2]; 7 days of culturing, FIG. 34) | portion of the cell migrated into the hydrogels ([2]; 7 days, compared to PRGmx) | HGF secreted into the culture medium [3] | 3-Dimensional cell proliferation (MC3T3-E1 cells) | promotion of pre-osteoblast differentiation [4]
1 | Ac(RADA)4-CONH2 | able to serve as a substrate for neurite outgrowth and formation of functionally active synapses | no angiogenesis both inside and below the hydrogel | migrated less deeper than PRGmx | larger | significant increase |  | 
2 | Ac(RADA)4GGFHRRIKA-CONH2 (Ac-RADARADARADARADAGGFHRRIKA-NH2) [FHR = 1% solution; FHR-2P = 2% solution] |  |  |  |  |  | superior | some function to promote differentiation
